Laboratory results taken from paper PMC3289669, “Capacity for Absorption of Water-Soluble Secondary Metabolites Greater in Birds than in Rodents” (PLoS ONE, 2012).
“And” between values parts separate entries of the source, which are not always exact repeats. Equal entries are not always repeated. Where two headings read alike, the source gives them in different places. Values belong to the compound of their own block, whether it stands above or below them.

Tests used:
[1] = test system: whole-animal glucose absorption; set-up: method as in PMID 20145981; details: American robins; cited from earlier work
[2] = test system: whole-animal glucose absorption; set-up: method as in PMID 20145981; details: laboratory rats, cited from earlier work
[3] = Recovery of injected probes in urine, both rodent species pooled; type: in vivo; details: Acomys cahirinus and Acomys russatus (pooled), intraperitoneal, data for both rodent species pooled, post-injection, read-out: Recovery of injected probe in urine, 95% C.I.
Description: (§1) As a measure of passive, paracellular absorption, we used standard methods from pharmacokinetics to measure the whole-organism fractional absorption of water-soluble compounds. As described in more detail, below, metabolically inert probe molecules were injected and also administered orally with a gavage needle to intact animals in separate experiments, and blood and/or urine samples were serially collected and analyzed for the probe molecules by liquid scintillation. Fractional absorption (f) was calculated as [post oral administration AUC]/[ post injection AUC] where AUC = dose-corrected area under the curve of plasma or urine probe amount vs. time. […] In mammals, the probes can be recovered in urine, and estimates of oral absorption take account of possible differential recovery by incorporating data on probes when injected. As shown in Results, recoveries of carbohydrate probes were uniformly high, which is in agreement with measures by others in rats and humans. In birds, plasma is sampled rather than urine, because urine is mixed in the avian cloaca with undigested residue from the intestine. […] In Discussion we elaborate on comparisons between these two procedures and reasons to choose them.
Also, the rodents were transferred to metabolic cages with wire bottoms and a tray beneath from which to collect clean urine samples. At the beginning of a trial, animals were orally dosed at 1.0% body mass with an isosmotic solution containing L-[^14C]arabinose (∼0.02 µCi/g animal) and either [^3H]3OMD-glucose (∼0.1 µCi/g animal) or [^3H]lactulose (∼0.5 µCi/g animal). […]
(§2) After administration of radiolabeled probes, birds and rodents were returned to their cages, where birds had ad libitum access to fruit and the rodents had ad libitum access to sucrose solution (10% w/w). […] Scintillation cocktail (Quicksafe A, Zinsser, UK) was added and samples were counted for disintegrations per minute (dpm) by liquid scintillation (Packard Tri-Carb 1600 TR scintillation counter, Packard INC., Meriden CT, USA), with corrections for quench and appearance of ^14C counts in the ^3H channel. […]

[4] = Mono-exponential fit of plasma probe concentrations after injection, Tristram's grackle; type: in vivo, Onychognathus tristramii; details: dose-corrected plasma concentration, mean ± SEM
Description: (§3) Also, the rodents were transferred to metabolic cages with wire bottoms and a tray beneath from which to collect clean urine samples. At the beginning of a trial, animals were orally dosed at 1.0% body mass with an isosmotic solution containing L-[^14C]arabinose (∼0.02 µCi/g animal) and either [^3H]3OMD-glucose (∼0.1 µCi/g animal) or [^3H]lactulose (∼0.5 µCi/g animal). Oral dose solutions also contained NaCl (∼90 mM, ∼180 mOsm) and D-glucose (∼90 mM, ∼90 mOsm). NaCl was included in the solution to balance osmolality. Inclusion of Na^+ also provides an essential ion for Na^+-coupled D-glucose absorption, although it is not strictly necessary in this kind of whole-animal study because animals would still absorb nearly all glucose even if the diet is low in Na^+ because additional Na^+ is secreted into the intestinal lumen together with bicarbonate and diffuses from blood. […]
as §2

[5] = Mono-exponential fit of plasma probe concentrations after injection, yellow-vented bulbul; type: in vivo, Pycnonotus xanthopygos; details: dose-corrected plasma concentration, mean ± SEM
Description: as §3, §2

[6] = Recovery of injected probes in urine of golden spiny mice; type: in vivo; details: Acomys russatus (golden spiny mouse), ip; A. russatus, intraperitoneal injection, cumulative urine recovery, mean ± SEM; read-out: Recovery of injected probe in urine
Description: (§4) As a measure of passive, paracellular absorption, we used standard methods from pharmacokinetics to measure the whole-organism fractional absorption of water-soluble compounds. As described in more detail, below, metabolically inert probe molecules were injected and also administered orally with a gavage needle to intact animals in separate experiments, and blood and/or urine samples were serially collected and analyzed for the probe molecules by liquid scintillation. Fractional absorption (f) was calculated as [post oral administration AUC]/[ post injection AUC] where AUC = dose-corrected area under the curve of plasma or urine probe amount vs. time. […] In mammals, the probes can be recovered in urine, and estimates of oral absorption take account of possible differential recovery by incorporating data on probes when injected. […]
as §2

[7] = Recovery of injected probes in urine of common spiny mice; type: in vivo; details: Acomys cahirinus (common spiny mouse), ip; A. cahirinus, intraperitoneal injection, cumulative urine recovery, mean ± SEM; read-out: Recovery of injected probe in urine
Description: as §4, §2

[8] = Fractional absorption of orally administered probes, both bird species pooled; type: in vivo, Onychognathus tristramii and Pycnonotus xanthopygos; details: for Fractional absorption (f): oral, both bird species pooled, mean ± SEM
Description: as §1, §3, §2

[9] = Fractional absorption of orally administered probes by rodents (urine recovery); type: in vivo, Acomys cahirinus and Acomys russatus; details: for Fractional absorption (f): oral, both rodent species pooled, corrected for post-injection recovery, mean ± SEM
Description: as §1
(§5) Also, the rodents were transferred to metabolic cages with wire bottoms and a tray beneath from which to collect clean urine samples. At the beginning of a trial, animals were orally dosed at 1.0% body mass with an isosmotic solution containing L-[^14C]arabinose (∼0.02 µCi/g animal) and either [^3H]3OMD-glucose (∼0.1 µCi/g animal) or [^3H]lactulose (∼0.5 µCi/g animal). Oral dose solutions also contained NaCl (∼90 mM, ∼180 mOsm) and D-glucose (∼90 mM, ∼90 mOsm). NaCl was included in the solution to balance osmolality. Inclusion of Na^+ also provides an essential ion for Na^+-coupled D-glucose absorption, although it is not strictly necessary in this kind of whole-animal study because animals would still absorb nearly all glucose even if the diet is low in Na^+ because additional Na^+ is secreted into the intestinal lumen together with bicarbonate and diffuses from blood. In a separate experimental trial, each animal was injected (0.6% body mass) with isosmotic NaCl solution containing L-[^14C]arabinose (∼0.02 µCi/g animal) and either [^3H]3OMD-glucose (∼0.1 µCi/g animal) or [^3H]lactulose (∼0.1 µCi/g animal). The injection site was the pectoralis muscle in birds and the peritoneal cavity in rodents. Syringes were weighed before and after dosing animals to determine actual dose administered.
(§6) After administration of radiolabeled probes, birds and rodents were returned to their cages, where birds had ad libitum access to fruit and the rodents had ad libitum access to sucrose solution (10% w/w). The purpose was to provide rodents water and some calories and also make them urinate more. Serial blood samples (∼25 µL) were drawn from the brachial vein of birds as described previously at t = 0 (background), 10, 20, 30, 45, 60, 80 or 90, 120, 150 min post-injection or post-oral administration. Plasma was separated using a standard hematocrit centrifuge, placed in scintillation vials and weighed. […] Scintillation cocktail (Quicksafe A, Zinsser, UK) was added and samples were counted for disintegrations per minute (dpm) by liquid scintillation (Packard Tri-Carb 1600 TR scintillation counter, Packard INC., Meriden CT, USA), with corrections for quench and appearance of ^14C counts in the ^3H channel. […]

[10] = Fractional absorption of orally administered probes by Tristram's grackle (plasma AUC); type: in vivo, Onychognathus tristramii; details: oral; for Tmax: Onychognathus tristramii, plasma, read-out: Time of peak plasma level post oral administration; for Fractional absorption (f): AUCoral/AUCinj, mean ± SEM
Description: as §1, §5, §6

[11] = Fractional absorption of orally administered probes by yellow-vented bulbul (plasma AUC); type: in vivo, Pycnonotus xanthopygos; details: oral; for Tmax: Pycnonotus xanthopygos, plasma, read-out: Time of peak plasma level post oral administration (converted); for Fractional absorption (f): AUCoral/AUCinj, mean ± SEM
Description: as §1, §5, §6

[12] = in vivo; cited from earlier work
[13] = set-up: method as in PMID 18025481; details: rats, cited from earlier work
[14] = rock doves, nicotine in cationic water-soluble form, predicted from MW size-dependence of paracellular absorption
Source text: These factors of molecule size, charge, and associated nutrients help define the conditions under which water-soluble SMs may be best absorbed.

[15] = rock doves, area under the curve calculations; ref F. D. Cid, E. Caviedes-Vidal and W.H. Karasov, unpubl. observations; cited from earlier work
[16] = set-up: method as in earlier work; details: house sparrows; cited from earlier work
[17] = set-up: method as in PMID 17644690; details: rock doves; cited from earlier work
[18] = set-up: method as in PMID 2167807; details: humans, corrected for incomplete urine recovery; cited from earlier work
[19] = set-up: method as in PMID 17644690; details: laboratory rats; cited from earlier work

SMILES: O=c1c(OC2OC(CO)C(O)C(O)C2O)c(-c2ccc(O)c(O)c2)oc2cc(O)cc(O)c12 (centres unmarked) [isoquercetrin]
Effect on glucose absorption [1]: not in robins
Effect on glucose absorption [2]: significantly decreased glucose absorption

dose excreted [3]: 96 to 101%
A, mono-exponential fit Ct = A e^−αt [4]: 22.6±3.0 mg^−1 plasma
A, mono-exponential fit Ct = A e^−αt [5]: 81.1±10.4 mg^−1 plasma
dose excreted [6]: 93 ± 3%
dose excreted [7]: 100 ± 1%
Ratio f L-arabinose/f 3OMD-glucose (proportion of 3OMD-glucose absorption that is passive) ([8]; birds, corrected for difference in MW): 1
Fractional absorption (f) [8]: 0.88±0.08
Fractional absorption (f) [9]: 0.95±0.01
Ratio f L-arabinose/f 3OMD-glucose (proportion of 3OMD-glucose absorption that is passive) ([9]; rodents, corrected for difference in MW): 0.34
Tmax [10]: 40 to 50 min
Fractional absorption (f) [10]: 0.95±0.08
Tmax [11]: 30 min
Fractional absorption (f) [11]: 0.80±0.19
SMILES: CO[C@@H]([C@H](O)[C@H](O)CO)[C@@H](O)C=O [3-O-methyl-D-glucose]

SMILES: O=C[C@@H](O)[C@H](O)[C@@H](O)[C@@H](O)CO [L-glucose]
Share of glucose absorption accounted for by L-glucose (passive) [12]: 50 to >90

SMILES: C[C@H](O)[C@H](O)[C@@H](O)[C@@H](O)C=O [L-rhamnose]
Fractional absorption ([13]; estimate from serially sampling blood): 0.24±0.03
Fractional absorption ([13]; measured by urine recovery): 0.22±0.03

dose excreted [3]: 90 to 97%
Fractional absorption (f) [8]: 0.17±0.06
Fractional absorption (f) [9]: 0.085±0.021
Fractional absorption (f) [10]: 0.069±0.011
Fractional absorption (f) [11]: 0.30±0.10
SMILES: OC[C@H]1O[C@@H](O[C@@H]2[C@@H](CO)OC(O)(CO)[C@H]2O)[C@H](O)[C@@H](O)[C@H]1O (mixture of isomers) [lactulose]

SMILES: O=C(CCc1ccc(O)cc1)c1c(O)cc(O)cc1O[C@@H]1O[C@H](CO)[C@@H](O)[C@H](O)[C@H]1O [phloridzin]
Effect on glucose absorption [1]: did not significantly decrease glucose absorption
Inhibition of whole-animal glucose absorption efficiency ([2]; 10 mM): > 36%

SMILES: CN1CCC[C@H]1c1cccnc1 [nicotine]
Predicted absorption of a dose [14]: around 40%
Absorption of a dose [15]: 44±3%

dose excreted [3]: 81 to 93%
A, mono-exponential fit Ct = A e^−αt [4]: 25.1±3.1 mg^−1 plasma
A, mono-exponential fit Ct = A e^−αt [5]: 73.1±4.2 mg^−1 plasma
Fractional absorption (f) [8]: 1.03±0.17 and 1.03±0.07
Fractional absorption (f) [9]: 0.37
Fractional absorption (f) ([9]; listed as arabinose): 0.37±0.06
Tmax [10]: ≤ 10 min
Fractional absorption (f) [10]: 0.98±0.07
Tmax [11]: ≤ 10 min
Fractional absorption (f) [11]: 1.10±0.15
SMILES: OC1OC[C@H](O)[C@H](O)[C@H]1O (mixture of isomers) [L-arabinose]
Fractional absorption (f) [16]: 0.61
Fractional absorption (f) [17]: 0.61
Fractional absorption (f) [18]: 0.26
Fractional absorption (f) [19]: 0.34
